The target in test [1] is T1, HRV2 2A Proteinase (Human rhinovirus 2, UniProt P04936).
T1 construct: allen 142 Aminosäuren der 2A Proteinase von HRV2 und 2 Stoppcodons; N-terminal leader: first 14 aa of T7 gene 10 protein + last 7 aa of HRV2 VP1 (removed by self-cleavage) (N, cleaved yes); made in house; host or cells: E. coli BL21(DE3)LysS, plasmid pET/2A; 30 % ammonium sulfate precipitate
Briefly: In vitro translation of globin RNA in HeLa cell extract pretreated with 2A proteinase, with inhibitor. It counts as biochemical. The note with it: 2A Proteinase preincubated with 0,5 mM Elastatinal, Fig. 16C, Spur 4. As for the experimental part: Zur Herstellung eines HeLa-Zellextraktes wurde eine 1 l HeLa-Suspensionkultur (z.B. HeLa S3 (03-157, FLOWLABS) oder HeLa Ohio (03-147, FLOWLABS)), (ca. 4 x 10⁵ Zellen/ml) in halb-logarithmischer Phase abzentrifugiert (20 min, 1200 rpm), mit isotonischem Puffer gewaschen, durch mehrmaliges "Douncen" (40- bis 50-mal) aufgebrochen und die Zelltrümmer durch Zentrifugation (3 min, 3000 rpm) entfernt. Der Überstand wurde erneut zentrifugiert (20 min, 10000 rpm), das Pellet verworfen und der neue Überstand nochmals zentrifugiert (20 min, 13000 rpm). Der erhaltene Überstand wurde dann bei 4°C gegen Dialysepuffer (zweimal je 400 ml) dialysiert und nochmals 20 Minuten bei 13000 rpm zentrifugiert (20 min, 13000 rpm). Der Überstand (S 20-Extrakt) wurde portioniert und in flüssigem Stickstoff gelagert. isotonischer Puffer: 10 mM Hepes, pH 7,9, 140 mM KCl, 1,5 mM MgCl₂, 1 mM EDTA, 0,5 mM PMSF. Dialysepuffer: 0,1 M KCl, 20 % Glycerin, 20 mM Hepes, pH 7,9, 0,2 mM EDTA, 0,5 mM DTT, 0,5 mM PMSF.
1 ml Portionen des S 20-Extraktes wurden dann mit Micrococcal Nuclease (Boehringer Mannheim; Nr. 107921) behandelt, um die endogene RNA abzubauen: Zunächst wurde der Extrakt zentrifugiert (15 min, 4°C, 13000 rpm) und das Pellet verworfen. Zum Überstand (1 ml) wurden zugegeben: 1,2 µl 1 M CaCl₂ 1,5 µl 1 M MgOAc 16,0 µl Micrococcal Nuclease (15 U/µl). […]

The target in test [2] is T1, HRV2 2A Proteinase. Briefly: In vitro translation of capped pLink-2C RNA in rabbit reticulocyte lysate pretreated with 2A preparation, with inhibitor. It counts as biochemical. To be noted: 2A Präparation treated with 0,5 mM Elastatinal, Figur 8B, Spur 8. As for the experimental part: In vitro Transkription dieser Plasmide nach Linearisierung mit BamHI mittels T7 RNA Polymerase wurde wie beschrieben (Duechler et al. (1989), loc. cit.) durchgeführt. Für die Synthese von RNA mit Cap-Struktur wird dem Transkriptionsansatz ⁷mGpppG und GTP zugesetzt. Zum Beispiel kann der von Duechler et al. (1989, loc. cit.) beschriebene Reaktionsansatz 1 mM 7MeGppG und 250 µm GTP enthalten. Am Ende der Reaktionszeit wurde die DNA durch Zugabe von DNase I (RNAse-frei, Boehringer Mannheim) verdaut, die Proteine durch Phenolextraktion entfernt, und die RNA nach Zugabe von einem Drittel Volumen 8 M Ammoniumacetat mit Ethanol gefällt. Nach nochmaliger Fällung mit Ethanol wurde die RNA anschließend in Wasser aufgenommen und ein Aliquot durch Agarosegelelektrophorese auf Qualität überprüft. Der Laufpuffer enthielt 1% SDS. Für die in vitro Translation wurde jeweils 1 µg dieser RNAs eingesetzt. Die Reaktion enthielt in 20 µl 90 mM KCl, 0.3 mM MgCl₂, 10 mM Kreatinphosphat, 2 µl ³⁵S-Trans-Label (ICN; 10 µCi/µl, 1000 Ci/mmol) und 11,5 µl Kaninchenreticulocytenlysat, das mit Micrococcal Nuclease (Sigma) behandelt worden war. Das Kaninchenreticulocytenlysat wurde nach der Methode von Jackson, R. und Hunt, T. (Meth. Enzymol. (1983) 96, 50 - 74) durch Behandlung mit Micrococcal Nuclease hergestellt. […]

Another test addresses 2A (Human rhinovirus 2, UniProt P04936). The note with it: Sommergruber et al. (1992); read-out: IC50 für 2A; cited from earlier work.
A further test deals with T2, HRV2 2A (Human rhinovirus 2, UniProt P04936).
T2 construct: wurden mit einer reifen, rekombinanten HRV2 2A durchgeführt; made in house
T2 sequence (P04936 851-992): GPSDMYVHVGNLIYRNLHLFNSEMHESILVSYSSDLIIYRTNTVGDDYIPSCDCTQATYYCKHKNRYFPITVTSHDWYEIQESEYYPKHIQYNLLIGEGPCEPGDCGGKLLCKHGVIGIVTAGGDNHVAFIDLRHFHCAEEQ
Briefly: Competition assay of peptide substrates against reference peptide P8-P8' (HPLC analysis of cleavage). It is filed as biochemical. The note with it: for Spaltbarkeit durch HRV2 2A (result in words): competition assay with P8-P8'. An excerpt: Die Substratspezifitätsstudien, wie auch alle anderen Studien in diesem Beispiel, wurden mit einer reifen, rekombinanten HRV2 2A durchgeführt. Mittels Kompetitionsstudien unter Verwendung eines 16-mer Wildtyp-Peptidsubstrats (P8-P8') als Referenzpeptid wurde der jeweilige (Vmax/Km)rel-Wert für das mutierte Peptidsubstrat ermittelt. Das Peptid P8-P8' ([…]* […] (SEQ ID NO. 23)) entspricht der nativen Spaltstelle von HRV2 2A im Polyprotein ([…] ist der C-terminale Teil von VP1 und […] der N-Terminus von HRV2 2A). Dieses Peptid wird von der rekombinanten HRV2 2A intermolekular korrekt zwischen Ala und Gly prozessiert (Km-Wert: (5,4±0,02) x 10⁻⁴ Mol/l; Sommergruber et al., loc cit). […] Die Kompetitionsreaktion wurde durch Zugabe von 1 µl einer reinen (ca. 95%) HRV2 2A Stammlösung (2mg/ml in Puffer A + 0,05% NaN₃) gestartet. 50 µl Proben wurden jeweils nach 30, 60, 90, 120 und 150 sek bzw. nach 2, 4, 8, 16 und 32 min entnommen, in ein ULTRAFREE-MC Röhrchen (10,000 NMWL; Fa. Millipore) mit jeweils 250 µl 0,5 M HClO₄ transferriert (Reaktionsstop), gemischt und auf Eis gestellt (mindestens 15 min). Anschließend wurde die Lösung 30 min bei 14K, 4°C in einer SIGMA Eppendorfzentrifuge zentrifugiert. Das Filtrat wurde direkt zur HPLC Analyse eingesetzt. Peptidsubstrate und deren Spaltprodukte wurden entweder auf einem Kurzgradienten (5,5 min; 5,4% B/min; Merck Supersphere C18 Säule, 4x50 mm) oder einem Langgradienten (34,5 min; 0,8% B/min; Bakerbond WP C18 Säule, 4,6x250mm) aufgetrennt. Die Messung der UV Absorption wurde bei 210 nm und 280 nm durchgeführt. Die Spaltprodukte wurden mittels Komigration von Referenzpepetiden und/oder durch Proteinsequenzierung (Hunkapiller und Hood (1983) Science 219, 650-659) identifiziert. Der prozentuelle Anteil der Spaltung für jeden Zeitpunkt wurde durch Vergleich der Flächen der C- und N-terminalen Produktpeaks mit dem des verbliebenen ungespaltenen Peptidsubstrats ermittelt. Zusätzlich wurden die Daten graphisch ausgewertet, um etwaige Abweichungen vom klassischen Kurvenverlauf zu erkennen (z.B. sigmoide Kurve, allosterische Effekte etc.). Bei keinem der in Abb. 23 angeführten mutierten Peptidsubstrate konnte solch ein Effekt beobachtet werden. Für jedes Substrat und dessen Spaltprodukte war die Gesamtfläche der Peaks unabhängig vom Maß der Spaltung (< 5%). Für zwei Peptidsubstrate 1 und 2 ergeben sich in einem Kompetitionsassay nach Pallai et al. (Pallai et al. (1989) J. Biol. Chem. 264, 9738-9741) die (Vmax/Km)rel-Werte: (Vmax/Km)1/(Vmax/Km)2 = log(1-F1)/log(1-F2) [formula] wobei F der Anteil des umgesetzten Substrats ist. In allen Kompetitionsstudien waren Substrat- und Produktpeaks entweder auf dem langen oder dem kurzen bzw. auf beiden Gradienten über HPLC-Analyse voneinander trennbar. […]

Another test has as its system host cell shut-off. Nature of the test: Inhibition of host cell shut-off (statement, test not described). The note with it: statement only, no data given.

T1 sequence (P04936 851-992): as above
Chain of 2A (P04936 851-992): as above

The term IC50 denotes the point on the concentration scale where inhibition reaches its midpoint. Turning to `CC(C)C[C@H](NC(=O)N[C@H](C(=O)N[C@@H](CCC(N)=O)C(=O)N[C@@H](C)C=O)[C@@H]1CCNC(=N)N1)C(=O)O` [Elastatinal], the “Effect on 2A action on translation of Globin RNA” value at HRV2 2A Proteinase [1] is on record as “die 2A-Wirkung auf die Translation wird inhibiert”. Moreover, on HRV2 2A Proteinase [2], the “Effect on 2A-induced change of translation pattern” value is given as “die Inhibition von 2A verhindert die Änderung der Translationseigenschaften”. Also, the IC50 on 2A was 50 µM.

As for “p220-3: 16-mer Oligopeptid, Position im p220-Molekül 737-752 (SEQ ID NO. 124) (SSKRTAADKDRGEEDA; UniProt Q04637 737-752, looked up, fragment)”, in the test with HRV2 2A, the “Competitive inhibition of HRV2 2A” value is given as “wirken als kompetitive Inhibitoren” and the “Spaltbarkeit durch HRV2 2A (result in words)” value is “von HRV2 2A prozessiert werden können”. The “Inhibition of host cell shut-off” value in the test on host cell shut-off is “in der Lage, den "host cell shut-off" zu inhibieren”.

For the compound “p220-4: 16-mer Oligopeptid, Position im p220-Molekül 476-491 (SEQ ID NO. 125) (SEKGGEELLPPESTPI; UniProt Q04637 476-491, looked up, fragment)”, in the test with HRV2 2A, the “Competitive inhibition of HRV2 2A” value is “wirken als kompetitive Inhibitoren” and the “Spaltbarkeit durch HRV2 2A (result in words)” value was “von HRV2 2A prozessiert werden können”. In the test on host cell shut-off, the “Inhibition of host cell shut-off” value is “in der Lage, den "host cell shut-off" zu inhibieren”.

Values taken from patent publication EP0564801A1, “Analysis of host cell shut-off” (BOEHRINGER INGELHEIM INTERNATIONAL GmbH, priority 1992, dated 1993).
